Laboratory results reported in patent publication US20250098679A1, “HERBICIDAL PYRIDONE DERIVATIVES” (SYNGENTA CROP PROTECTION AG, priority 2021, published 2025).

What was measured:
Format in all cases: in vivo
[1] = test system: Amaranthus retoflexus (AMARE); experiment: Post-emergence Test, Amaranthus retoflexus (AMARE); set-up: key to percentage damage caused to the plant, AMARE (five-point scale): 5=81-100%, 4=61-80%, 3=41-60%, 2=21-40%, 1=0-20% damage; details: evaluated after 13 days
Outline: (§1)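 Sown pots in a glasshouse (24/16 °C day/night, 14 h light, 65% humidity) were sprayed with compound in acetone/water (50:50) with 0.5% Tween 20, at 1000 g/ha unless otherwise stated. Damage was assessed 13 days after spraying and scored 1–5 (5=81-100%, 1=0-20%).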

[2] = test system: Setaria faberi (SETFA); experiment: Post-emergence Test, Setaria faberi (SETFA); set-up: key to percentage damage caused to the plant, SETFA (five-point scale): 5=81-100%, 4=61-80%, 3=41-60%, 2=21-40%, 1=0-20% damage; details: 1000 g/ha, evaluated after 13 days
Outline: as §1

[3] = test system: Zea mays (ZEAMX); experiment: Pre-emergence Test, Zea mays (ZEAMX); details: evaluated after 13 days
[4] = test system: Ipomoea hederacea (IPOHE); experiment: Post-emergence Test, Ipomoea hederacea (IPOHE); set-up: key to percentage damage caused to the plant, IPOHE (five-point scale): 5=81-100%, 4=61-80%, 3=41-60%, 2=21-40%, 1=0-20% damage; details: evaluated after 13 days
Outline: as §1

[5] = test system: Amaranthus palmeri (AMAPA); experiment: Pre-emergence Test, Amaranthus palmeri (AMAPA); details: evaluated after 13 days
[6] = test system: Amaranthus retoflexus (AMARE); experiment: Pre-emergence Test, Amaranthus retoflexus (AMARE); details: evaluated after 13 days
[7] = test system: Ipomoea hederacea (IPOHE); experiment: Pre-emergence Test, Ipomoea hederacea (IPOHE); details: evaluated after 13 days
[8] = test system: Echinochloa crus-galli (ECHCG); experiment: Post-emergence Test, Echinochloa crus-galli (ECHCG); set-up: key to percentage damage caused to the plant, ECHCG (five-point scale): 5=81-100%, 4=61-80%, 3=41-60%, 2=21-40%, 1=0-20% damage; details: evaluated after 13 days; for percentage damage caused to the plant, ECHCG (five-point scale): 250 g/Ha
Outline: as §1

[9] = test system: Echinochloa crus-galli (ECHCG); experiment: Pre-emergence Test, Echinochloa crus-galli (ECHCG); details: evaluated after 13 days
[10] = test system: Amaranthus palmeri (AMAPA); experiment: Post-emergence Test, Amaranthus palmeri (AMAPA); set-up: key: 5=81-100%, 4=61-80%, 3=41-60%, 2=21-40%, 1=0-20% damage; details: evaluated after 13 days
Outline: as §1

[11] = test system: Zea mays (ZEAMX); experiment: Post-emergence Test, Zea mays (ZEAMX); set-up: key to percentage damage caused to the plant, ZEAMX (five-point scale): 5=81-100%, 4=61-80%, 3=41-60%, 2=21-40%, 1=0-20% damage; details: evaluated after 13 days
Outline: as §1

`CCn1c(Cn2ccc(/C=N/OC)n2)cc(=O)c(C(=O)O)c1-c1ccc(Cl)c(Cl)c1` [Compound 204, 2-(3,4-dichlorophenyl)-1-ethyl-6-[[3-[(E)-methoxyiminomethyl]pyrazol-1-yl]methyl]-4-oxo-pyridine-3-carboxylic acid] was tested, and the “Post-emergence Test AMARE, percentage damage caused to the plant (five-point scale)” value ([1]; 250 g/Ha (*)) was 1 (1=0-20%), the “Post-emergence Test AMARE, percentage damage caused to the plant (five-point scale)” value ([1]; 1000 g/ha) was 2 (2=21-40%) and the “Post-emergence Test SETFA, percentage damage caused to the plant (five-point scale)” value [2] was 4 (4=61-80%). The “Pre-emergence Test ZEAMX, percentage damage caused to the plant (five-point scale)” value ([3]; 250 g/Ha (*)) was 1 (1=0-20%), the “Pre-emergence Test ZEAMX, percentage damage caused to the plant (five-point scale)” value ([3]; 1000 g/ha) was 2 (2=21-40%) and the “Post-emergence Test IPOHE, percentage damage caused to the plant (five-point scale)” value ([4]; 250 g/Ha (*)) was 2 (2=21-40%). The “Post-emergence Test IPOHE, percentage damage caused to the plant (five-point scale)” value ([4]; 1000 g/ha) was 3 (3=41-60%), the “Pre-emergence Test AMAPA, percentage damage caused to the plant (five-point scale)” value ([5]; 250 g/Ha (*)) was 1 (1=0-20%) and the “Pre-emergence Test AMAPA, percentage damage caused to the plant (five-point scale)” value ([5]; 1000 g/ha) was 1 (1=0-20%). The “Pre-emergence Test AMARE, percentage damage caused to the plant (five-point scale)” value ([6]; 250 g/Ha (*)) was 0, the “Pre-emergence Test AMARE, percentage damage caused to the plant (five-point scale)” value ([6]; 1000 g/ha) was 1 (1=0-20%) and the “Pre-emergence Test IPOHE, percentage damage caused to the plant (five-point scale)” value ([7]; 250 g/Ha (*)) was 2 (2=21-40%). The “Pre-emergence Test IPOHE, percentage damage caused to the plant (five-point scale)” value ([7]; 1000 g/ha) was 4 (4=61-80%), the “Post-emergence Test ECHCG, percentage damage caused to the plant (five-point scale)” value ([8]; 250 g/Ha (*)) was 3 (3=41-60%) and the “Pre-emergence Test ECHCG, percentage damage caused to the plant (five-point scale)” value ([9]; 250 g/Ha (*)) was 2 (2=21-40%). The “Pre-emergence Test ECHCG, percentage damage caused to the plant (five-point scale)” value ([9]; 1000 g/ha) was 4 (4=61-80%), the “Post-emergence Test AMAPA, percentage damage caused to the plant (five-point scale)” value ([10]; 250 g/Ha (*)) was 1 (1=0-20%) and the “Post-emergence Test AMAPA, percentage damage caused to the plant (five-point scale)” value ([10]; 1000 g/ha) was 1 (1=0-20%). The “Post-emergence Test ZEAMX, percentage damage caused to the plant (five-point scale)” value ([11]; 250 g/Ha (*)) was 2 (2=21-40%) and the “Post-emergence Test ZEAMX, percentage damage caused to the plant (five-point scale)” value ([11]; 1000 g/ha) was 3 (3=41-60%).

For `CCn1c(Cn2ccc(Br)n2)cc(=O)c(C(=O)O)c1-c1ccc(Cl)c(Cl)c1` [Compound 177, 6-[(3-bromopyrazol-1-yl)methyl]-2-(3,4-dichlorophenyl)-1-ethyl-4-oxo-pyridine-3-carboxylic acid], the “percentage damage caused to the plant, AMARE (five-point scale)” value ([1]; 250 g/Ha) was 1 (1=0-20%), the “percentage damage caused to the plant, AMARE (five-point scale)” value ([1]; 1000 g/ha) was 3 (3=41-60%) and the “percentage damage caused to the plant, SETFA (five-point scale)” value [2] was 4 (4=61-80%). The “Pre-emergence Test ZEAMX, percentage damage caused to the plant (five-point scale)” value ([3]; 250 g/Ha (*)) was 0, the “Pre-emergence Test ZEAMX, percentage damage caused to the plant (five-point scale)” value ([3]; 1000 g/ha) was 0 and the “percentage damage caused to the plant, IPOHE (five-point scale)” value ([4]; 250 g/Ha) was 4 (4=61-80%). For the same compound, the “percentage damage caused to the plant, IPOHE (five-point scale)” value ([4]; 1000 g/ha) was 3 (3=41-60%), the “Pre-emergence Test AMAPA, percentage damage caused to the plant (five-point scale)” value ([5]; 250 g/Ha (*)) was 1 (1=0-20%) and the “Pre-emergence Test AMAPA, percentage damage caused to the plant (five-point scale)” value ([5]; 1000 g/ha) was 1 (1=0-20%). For the same compound, the “Pre-emergence Test AMARE, percentage damage caused to the plant (five-point scale)” value ([6]; 250 g/Ha (*)) was 0, the “Pre-emergence Test AMARE, percentage damage caused to the plant (five-point scale)” value ([6]; 1000 g/ha) was 1 (1=0-20%) and the “Pre-emergence Test IPOHE, percentage damage caused to the plant (five-point scale)” value ([7]; 250 g/Ha (*)) was 1 (1=0-20%). For the same compound, the “Pre-emergence Test IPOHE, percentage damage caused to the plant (five-point scale)” value ([7]; 1000 g/ha) was 2 (2=21-40%), the “percentage damage caused to the plant, ECHCG (five-point scale)” value [8] was 3 (3=41-60%) and the “Pre-emergence Test ECHCG, percentage damage caused to the plant (five-point scale)” value ([9]; 250 g/Ha (*)) was 4 (4=61-80%). The “Pre-emergence Test ECHCG, percentage damage caused to the plant (five-point scale)” value ([9]; 1000 g/ha) was 5 (5=81-100%), the “percentage damage caused to the plant, AMAPA (five-point scale)” value ([10]; 250 g/Ha) was 2 (2=21-40%) and the “percentage damage caused to the plant, AMAPA (five-point scale)” value ([10]; 1000 g/ha) was 2 (2=21-40%). The “percentage damage caused to the plant, ZEAMX (five-point scale)” value ([11]; 250 g/Ha) was 1 (1=0-20%) and the “percentage damage caused to the plant, ZEAMX (five-point scale)” value ([11]; 1000 g/ha) was 1 (1=0-20%).

With `CCn1c(Cn2nccc2COC)cc(=O)c(C(=O)O)c1-c1ccc(Cl)c(Cl)c1` [Compound 190, 2-(3,4-dichlorophenyl)-1-ethyl-6-[[5-(methoxymethyl)pyrazol-1-yl]methyl]-4-oxo-pyridine-3-carboxylic acid] the “percentage damage caused to the plant, AMARE (five-point scale)” value ([1]; 250 g/Ha) was 1 (1=0-20%), the “percentage damage caused to the plant, AMARE (five-point scale)” value ([1]; 1000 g/ha) was 2 (2=21-40%) and the “percentage damage caused to the plant, SETFA (five-point scale)” value [2] was 4 (4=61-80%). For the same compound, the “Pre-emergence Test ZEAMX, percentage damage caused to the plant (five-point scale)” value ([3]; 250 g/Ha (*)) was 1 (1=0-20%), the “Pre-emergence Test ZEAMX, percentage damage caused to the plant (five-point scale)” value ([3]; 1000 g/ha) was 2 (2=21-40%) and the “percentage damage caused to the plant, IPOHE (five-point scale)” value ([4]; 250 g/Ha) was 1 (1=0-20%). For the same compound, the “percentage damage caused to the plant, IPOHE (five-point scale)” value ([4]; 1000 g/ha) was 3 (3=41-60%), the “Pre-emergence Test AMAPA, percentage damage caused to the plant (five-point scale)” value ([5]; 250 g/Ha (*)) was 0 and the “Pre-emergence Test AMAPA, percentage damage caused to the plant (five-point scale)” value ([5]; 1000 g/ha) was 1 (1=0-20%). For the same compound, the “Pre-emergence Test AMARE, percentage damage caused to the plant (five-point scale)” value ([6]; 250 g/Ha (*)) was 0, the “Pre-emergence Test AMARE, percentage damage caused to the plant (five-point scale)” value ([6]; 1000 g/ha) was 1 (1=0-20%) and the “Pre-emergence Test IPOHE, percentage damage caused to the plant (five-point scale)” value ([7]; 250 g/Ha (*)) was 1 (1=0-20%). The “Pre-emergence Test IPOHE, percentage damage caused to the plant (five-point scale)” value ([7]; 1000 g/ha) was 3 (3=41-60%), the “percentage damage caused to the plant, ECHCG (five-point scale)” value [8] was 3 (3=41-60%) and the “Pre-emergence Test ECHCG, percentage damage caused to the plant (five-point scale)” value ([9]; 250 g/Ha (*)) was 1 (1=0-20%). For the same compound, the “Pre-emergence Test ECHCG, percentage damage caused to the plant (five-point scale)” value ([9]; 1000 g/ha) was 4 (4=61-80%), the “percentage damage caused to the plant, AMAPA (five-point scale)” value ([10]; 250 g/Ha) was 1 (1=0-20%) and the “percentage damage caused to the plant, AMAPA (five-point scale)” value ([10]; 1000 g/ha) was 1 (1=0-20%). The “percentage damage caused to the plant, ZEAMX (five-point scale)” value ([11]; 250 g/Ha) was 0 and the “percentage damage caused to the plant, ZEAMX (five-point scale)” value ([11]; 1000 g/ha) was 3 (3=41-60%).
